Patent US8664257B2, “Oxygen-substituted 3-heteroaroylamino-propionic acid derivatives and their use as pharmaceuticals” (Sanofi, priority 2010, dated 2014)

Target: T1, Recombinant human cathepsin A (Homo sapiens, UniProt P10619)
T1 construct: Recombinant human cathepsin A (residues 29-480, with a C-terminal 10-His tag); 10-His (C); purchased R&D Systems 1049-SE
T1 sequence (P10619 29-312 limits assumed): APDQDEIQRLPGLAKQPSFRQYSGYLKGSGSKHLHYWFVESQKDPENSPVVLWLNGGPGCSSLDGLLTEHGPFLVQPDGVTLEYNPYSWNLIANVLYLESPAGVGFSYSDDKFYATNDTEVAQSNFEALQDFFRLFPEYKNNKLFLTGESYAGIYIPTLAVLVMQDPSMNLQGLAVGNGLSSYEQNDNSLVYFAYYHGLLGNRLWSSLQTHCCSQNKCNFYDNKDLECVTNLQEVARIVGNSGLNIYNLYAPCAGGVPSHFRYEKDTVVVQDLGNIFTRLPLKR
T1 sequence (P10619 327-480 limits assumed): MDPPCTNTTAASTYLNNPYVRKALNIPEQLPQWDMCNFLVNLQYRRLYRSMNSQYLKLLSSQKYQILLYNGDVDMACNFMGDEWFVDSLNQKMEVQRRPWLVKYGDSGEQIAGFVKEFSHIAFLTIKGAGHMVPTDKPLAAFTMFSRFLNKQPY
Experiment: Cathepsin A inhibitory activity
Type: biochemical
Details: read-out: Activity (2): Cathepsin A inhibitory activity (IC50 class)
Method in brief: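 Human cathepsin A (res. 29-480, C-His10) pre-activated with cathepsin L (MES pH 6.0, DTT, 15 min, 37 °C; quenched with 10 μM E-64). Enzyme (833 ng/ml) preincubated 15 min RT with compound in MES pH 5.5/DTT, then 2 μM Bodipy FL-bradykinin for 15 min RT. Capillary electrophoresis product/substrate peak areas; IC50 from % inhibition.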

IC50 [nM]	SMILES
< 100	COc1ccc(C(CC(=O)O)NC(=O)c2cc(OCC3CC3)n(-c3ccccc3F)n2)c(Cl)c1 (stereo not shown) [Example 705]
< 100	CCOc1cc(C(=O)NC(CC(=O)O)c2cccc(F)c2C)nn1-c1ccccc1F (stereo not shown) [Example 706]
100 to 1000	CCOc1cc(C(=O)N[C@@H](CC(=O)O)c2ccccc2)nn1-c1ccccc1F [Example 707]
< 100	CCOc1cc(C(=O)NC(CC(=O)O)c2ccc(C)cc2C)nn1-c1ccccc1F (stereo not shown) [Example 708]
100 to 1000	CCOc1cc(C(=O)N[C@@H](CC(=O)O)c2ccccc2OC)nn1-c1ccccc1F [Example 709]
100 to 1000	CCOc1cc(C(=O)N[C@@H](CC(=O)O)c2ccc(C#N)cc2)nn1-c1ccccc1F [Example 710]
100 to 1000	CCOc1cc(C(=O)N[C@@H](CC(=O)O)c2cccc(OC)c2)nn1-c1ccccc1F [Example 711]
< 100	CCOc1cc(C(=O)N[C@@H](CC(=O)O)c2cccc(C)c2)nn1-c1ccccc1F [Example 712]
< 100	CCOc1cc(C(=O)N[C@@H](CC(=O)O)c2ccc(Cl)cc2)nn1-c1ccccc1F [Example 713]
< 100	CCOc1cc(C(=O)NC(CC(=O)O)c2ccc(OC)cc2C)nn1-c1ccccc1F (stereo not shown) [Example 714]
< 100	CCOc1cc(C(=O)N[C@@H](CC(=O)O)c2ccc(C(F)(F)F)cc2)nn1-c1ccccc1F [Example 715]
< 100	CCOc1cc(C(=O)N[C@@H](CC(=O)O)c2ccc(C)cc2)nn1-c1ccccc1F [Example 716]
< 100	CCOc1cc(C(=O)N[C@@H](CC(=O)O)c2ccccc2Cl)nn1-c1ccccc1F [Example 717]
< 100	CCOc1cc(C(=O)NC(CC(=O)O)c2ccc(F)cc2C)nn1-c1ccccc1F (stereo not shown) [Example 718]
100 to 1000	CCOc1cc(C(=O)NC(CC(=O)O)c2ccc(F)cc2)nn1-c1ccccc1F (stereo not shown) [Example 719]
< 100	CCOc1cc(C(=O)N[C@@H](CC(=O)O)c2ccccc2F)nn1-c1ccccc1F [Example 720]
100 to 1000	CCOc1cc(C(=O)N[C@@H](CC(=O)O)c2ccccc2C(F)(F)F)nn1-c1ccccc1F [Example 721]
< 100	CCOc1cc(C(=O)N[C@@H](CC(=O)O)c2cccc(Cl)c2Cl)nn1-c1ccccc1F [Example 722]
< 100	CCOc1cc(C(=O)NC(CC(=O)O)c2cccc(C)c2C)nn1-c1ccccc1F (stereo not shown) [Example 723]
< 100	CCOc1cc(C(=O)NC(CC(=O)O)c2ccc(OC)cc2Cl)nn1-c1ccccc1F (stereo not shown) [Example 724]
< 100	CCOc1cc(C(=O)NC(CC(=O)O)c2cccc(F)c2C)nn1-c1ccccc1Cl (stereo not shown) [Example 725]
100 to 1000	CCOc1cc(C(=O)N[C@@H](CC(=O)O)c2ccccc2)nn1-c1ccccc1Cl [Example 726]

IC50 [nM]	SMILES
< 100	CCOc1cc(C(=O)N[C@@H](CC(=O)O)c2ccccc2C)nn1-c1ccccc1Cl [Example 727]
< 100	CCOc1cc(C(=O)NC(CC(=O)O)c2ccc(C)cc2C)nn1-c1ccccc1Cl (stereo not shown) [Example 728]
100 to 1000	CCOc1cc(C(=O)N[C@@H](CC(=O)O)c2ccccc2OC)nn1-c1ccccc1Cl [Example 729]
100 to 1000	CCOc1cc(C(=O)N[C@@H](CC(=O)O)c2ccc(C#N)cc2)nn1-c1ccccc1Cl [Example 730]
100 to 1000	CCOc1cc(C(=O)N[C@@H](CC(=O)O)c2cccc(OC)c2)nn1-c1ccccc1Cl [Example 731]
< 100	CCOc1cc(C(=O)N[C@@H](CC(=O)O)c2cccc(C)c2)nn1-c1ccccc1Cl [Example 732]
< 100	CCOc1cc(C(=O)N[C@@H](CC(=O)O)c2ccc(Cl)cc2)nn1-c1ccccc1Cl [Example 733]
100 to 1000	CCOc1cc(C(=O)N[C@@H](CC(=O)O)c2ccc(C(F)(F)F)cc2)nn1-c1ccccc1Cl [Example 735]
< 100	CCOc1cc(C(=O)N[C@@H](CC(=O)O)c2ccc(C)cc2)nn1-c1ccccc1Cl [Example 736]
< 100	CCOc1cc(C(=O)N[C@@H](CC(=O)O)c2ccccc2Cl)nn1-c1ccccc1Cl [Example 737]
< 100	CCOc1cc(C(=O)NC(CC(=O)O)c2ccc(F)cc2C)nn1-c1ccccc1Cl (stereo not shown) [Example 738]
100 to 1000	CCOc1cc(C(=O)NC(CC(=O)O)c2ccc(F)cc2)nn1-c1ccccc1Cl (stereo not shown) [Example 739]
100 to 1000	CCOc1cc(C(=O)N[C@@H](CC(=O)O)c2ccccc2C(F)(F)F)nn1-c1ccccc1Cl [Example 741]
< 100	CCOc1cc(C(=O)N[C@@H](CC(=O)O)c2cccc(Cl)c2Cl)nn1-c1ccccc1Cl [Example 742]
< 100	CCOc1cc(C(=O)NC(CC(=O)O)c2cccc(C)c2C)nn1-c1ccccc1Cl (stereo not shown) [Example 743]
< 100	Cc1ccccc1[C@H](CC(=O)O)NC(=O)c1cc(OCC(C)O)n(-c2ccccc2F)n1 (stereo partly shown) [Example 749]
< 100	CCC(C)(O)COc1cc(C(=O)N[C@@H](CC(=O)O)c2ccccc2C)nn1-c1ccccc1F (stereo partly shown) [Example 750]
< 100	CC(C)(O)COc1cc(C(=O)N[C@@H](CC(=O)O)c2ccc(Cl)cc2Cl)nn1-c1ccccc1F [Example 751, (S)-3-(2,4-Dichloro-phenyl)-3-{[1-(2-fluoro-phenyl)-5-(2-hydroxy-2-methyl-propoxy)-1H-pyrazole-3-carbonyl]-amino}-propionic acid]
< 100	Cc1ccccc1[C@H](CC(=O)O)NC(=O)c1cc(OCC(C)(C)O)n(-c2ccccc2F)n1 [Example 752]
< 100	CCC(O)COc1cc(C(=O)N[C@@H](CC(=O)O)c2ccccc2C)nn1-c1ccccc1F (stereo partly shown) [Example 755]
< 100	CCC(O)(CC)COc1cc(C(=O)N[C@@H](CC(=O)O)c2ccccc2C)nn1-c1ccccc1F [Example 756]
< 100	Cc1ccccc1[C@H](CC(=O)O)NC(=O)c1cc(OCC(C)(O)C2CC2)n(-c2ccccc2F)n1 (stereo partly drawn) [Example 757, (S)-3-{[5-(2-Cyclopropyl-2-hydroxy-propoxy)-1-(2-fluoro-phenyl)-1H-pyrazole-3-carbonyl]-amino}-3-o-tolyl-propionic acid]

SMILES	IC50 [nM]
Cc1ccccc1[C@H](CC(=O)O)NC(=O)c1cc(OCC(O)C(C)(C)C)n(-c2ccccc2F)n1 (stereo partly drawn) [Example 744, (S)-3-{[1-(2-Fluoro-phenyl)-5-(2-hydroxy-3,3-dimethyl-butoxy)-1H-pyrazole-3-carbonyl]-amino}-3-o-tolyl-propionic acid]	< 100
Cc1ccccc1[C@H](CC(=O)O)NC(=O)c1cc(OC[C@@H](O)C(C)(C)C)n(-c2ccccc2F)n1 [Example 746, (S)-3-{[1-(2-Fluoro-phenyl)-5-((S)-2-hydroxy-3,3-dimethyl-butoxy)-1H-pyrazole-3-carbonyl]-amino}-3-o-tolyl-propionic acid]	< 100
CC(C)(C)[C@@H](O)COc1cc(C(=O)N[C@@H](CC(=O)O)c2ccc(Cl)cc2Cl)nn1-c1ccccc1F [Example 753, (S)-3-(2,4-Dichloro-phenyl)-3-{[1-(2-fluoro-phenyl)-5-((R)-2-hydroxy-3,3-dimethyl-butoxy)-1H-pyrazole-3-carbonyl]-amino}-propionic acid]	< 100
CC(C)(C)[C@H](O)COc1cc(C(=O)N[C@@H](CC(=O)O)c2ccc(Cl)cc2Cl)nn1-c1ccccc1F [Example 754, (S)-3-(2,4-Dichloro-phenyl)-3-{[1-(2-fluoro-phenyl)-5-((S)-2-hydroxy-3,3-dimethyl-butoxy)-1H-pyrazole-3-carbonyl]-amino}-propionic acid]	< 100

Same assay, conditions: recombinant human cathepsin A 833 ng/ml, Bodipy FL-labeled bradykinin 2 μM, pH 5.5; read-out: CATH-A IC50

SMILES	IC50 [nM]
CC(C)(C)[C@@H](O)COc1cc(C(=O)N[C@@H](CC(=O)O)c2ccc(Cl)cc2Cl)nn1-c1ccccc1F [Example 753, (S)-3-(2,4-Dichloro-phenyl)-3-{[1-(2-fluoro-phenyl)-5-((R)-2-hydroxy-3,3-dimethyl-butoxy)-1H-pyrazole-3-carbonyl]-amino}-propionic acid]	345
